Laboratory results as given in ChEMBL document CHEMBL4014294, “Synthesis and in vitro investigation of potential antiproliferative monosaccharide-d-secoestrone bioconjugates” (Bioorg Med Chem Lett, 2017).
pIC50: −log10 of the molar value. Each block holds one molecule with its values, some of them ahead of it.

Columns and labels:
MCF7 [1] = test: Growth inhibition of human MCF7 cells at 10 uM after 72 hrs by MTT assay relative to control; assay type: functional; details: MCF7, 72 h, read-out: GI
HeLa [2] = test: Growth inhibition of human HeLa cells at 10 uM after 72 hrs by MTT assay relative to control; assay type: functional; details: read-out: GI
[3] = Growth inhibition of mouse NIH/3T3 cells at 10 uM after 72 hrs by MTT assay relative to control; assay type: cell-based, NIH3T3; details: read-out: GI
[4] = Growth inhibition of mouse NIH/3T3 cells at 30 uM after 72 hrs by MTT assay relative to control; assay type: cell-based, NIH3T3; details: read-out: GI
A2780 [5] = test: Growth inhibition of human A2780 cells at 30 uM after 72 hrs by MTT assay relative to control; assay type: functional; details: A2780, 72 h, read-out: GI
HeLa [6] = test: Growth inhibition of human HeLa cells at 30 uM after 72 hrs by MTT assay relative to control; assay type: functional; details: read-out: GI
HeLa [7] = test: Antiproliferative activity against human HeLa cells after 72 hrs by MTT assay; assay type: functional, cell-based
MCF7 [8] = test: Antiproliferative activity against human MCF7 cells after 72 hrs by MTT assay; assay type: functional, cell-based; details: MCF7, 72 h
MCF7 [9] = test: Growth inhibition of human MCF7 cells at 30 uM after 72 hrs by MTT assay relative to control; assay type: functional; details: MCF7, 72 h, read-out: GI
A2780 [10] = test: Antiproliferative activity against human A2780 cells after 72 hrs by MTT assay; assay type: functional, cell-based; details: A2780, 72 h
A2780 [11] = test: Growth inhibition of human A2780 cells at 10 uM after 72 hrs by MTT assay relative to control; assay type: functional; details: A2780, 72 h, read-out: GI

pIC50 (HeLa [7]): < 4.52 | pIC50 (MCF7 [8]): 4.97 | pIC50 (A2780 [10]): 5.28
Compound: CCC[C@H]1[C@@H]2CCc3cc(OCc4cn([C@@H]5O[C@H](COC(C)=O)[C@@H](OC(C)=O)[C@H](OC(C)=O)[C@H]5OC(C)=O)nn4)ccc3[C@H]2CC[C@]1(C)/C=N/O
inhibition of growth at 10 µM (MCF7 [1]): 46.7% | inhibition of growth at 10 µM (HeLa [2]): 20.4% | inhibition at 72 h, 10 µM [3]: < 20% | inhibition at 72 h, 30 µM [4]: 28.4% | inhibition of growth at 30 µM (A2780 [5]): 76.7% | inhibition of growth at 30 µM (HeLa [6]): 40% | inhibition of growth at 30 µM (MCF7 [9]): 67.7% | inhibition of growth at 10 µM (A2780 [11]): 69.5%

pIC50 (HeLa [7]): 5.05 | pIC50 (MCF7 [8]): 5.03 | pIC50 (A2780 [10]): 5.18
Compound: CCC[C@H]1[C@@H]2CCc3cc(OCc4cn([C@H]5O[C@H](COC(C)=O)[C@@H](OC(C)=O)[C@H](OC(C)=O)[C@@H]5OC(C)=O)nn4)ccc3[C@H]2CC[C@]1(C)/C=N/O
inhibition of growth at 10 µM (MCF7 [1]): 53.9% | inhibition of growth at 10 µM (HeLa [2]): 52.4% | inhibition at 72 h, 10 µM [3]: 27.3% | inhibition at 72 h, 30 µM [4]: 34.8% | inhibition of growth at 30 µM (A2780 [5]): 86.4% | inhibition of growth at 30 µM (HeLa [6]): 89.6% | inhibition of growth at 30 µM (MCF7 [9]): 65.9% | inhibition of growth at 10 µM (A2780 [11]): 69.5%

Compound: CCC[C@H]1[C@@H]2CCc3cc(OCc4cn(C[C@H]5O[C@H](OC)[C@H](OC(=O)c6ccccc6)[C@@H](OC(=O)c6ccccc6)[C@@H]5OC(=O)c5ccccc5)nn4)ccc3[C@H]2CC[C@]1(C)CO
inhibition of growth at 10 µM (MCF7 [1]): < 20% | inhibition of growth at 10 µM (HeLa [2]): < 20% | inhibition of growth at 30 µM (A2780 [5]): < 20% | inhibition of growth at 30 µM (HeLa [6]): < 20% | inhibition of growth at 30 µM (MCF7 [9]): < 20% | inhibition of growth at 10 µM (A2780 [11]): < 20%

pIC50 (HeLa [7]): 4.69 | pIC50 (MCF7 [8]): 5.10 | pIC50 (A2780 [10]): 5.06
Compound: CCC[C@H]1[C@@H]2CCc3cc(OCc4cn([C@@H]5O[C@H](COC(C)=O)[C@H](OC(C)=O)[C@H](OC(C)=O)[C@H]5OC(C)=O)nn4)ccc3[C@H]2CC[C@]1(C)/C=N/O
inhibition of growth at 10 µM (MCF7 [1]): 59.1% | inhibition of growth at 10 µM (HeLa [2]): 31.5% | inhibition at 72 h, 10 µM [3]: < 20% | inhibition at 72 h, 30 µM [4]: 25.5% | inhibition of growth at 30 µM (A2780 [5]): 85.2% | inhibition of growth at 30 µM (HeLa [6]): 61.9% | inhibition of growth at 30 µM (MCF7 [9]): 71.5% | inhibition of growth at 10 µM (A2780 [11]): 59.3%

Compound: CCC[C@H]1[C@@H]2CCc3cc(OCc4cn([C@@H]5O[C@H](CO)[C@@H](O)[C@H](O)[C@H]5O)nn4)ccc3[C@H]2CC[C@]1(C)CO
inhibition of growth at 10 µM (MCF7 [1]): < 20% | inhibition of growth at 10 µM (HeLa [2]): < 20% | inhibition of growth at 30 µM (A2780 [5]): < 20% | inhibition of growth at 30 µM (HeLa [6]): < 20% | inhibition of growth at 30 µM (MCF7 [9]): < 20% | inhibition of growth at 10 µM (A2780 [11]): < 20%

Compound: CCC[C@H]1[C@@H]2CCc3cc(OCc4cn(C[C@H]5O[C@H](OC)[C@@H](OC(=O)c6ccccc6)[C@@H](OC(=O)c6ccccc6)[C@@H]5OC(=O)c5ccccc5)nn4)ccc3[C@H]2CC[C@]1(C)CO
inhibition of growth at 10 µM (MCF7 [1]): < 20% | inhibition of growth at 10 µM (HeLa [2]): < 20% | inhibition of growth at 30 µM (A2780 [5]): < 20% | inhibition of growth at 30 µM (HeLa [6]): < 20% | inhibition of growth at 30 µM (MCF7 [9]): < 20% | inhibition of growth at 10 µM (A2780 [11]): < 20%

Compound: CCC[C@H]1[C@@H]2CCc3cc(OCc4cn(C[C@H]5O[C@@H](OC)[C@H](OC(=O)c6ccccc6)[C@@H]5OC(=O)c5ccccc5)nn4)ccc3[C@H]2CC[C@]1(C)/C=N/O
inhibition of growth at 10 µM (MCF7 [1]): < 20% | inhibition of growth at 10 µM (HeLa [2]): 24.3% | inhibition of growth at 30 µM (A2780 [5]): < 20% | inhibition of growth at 30 µM (HeLa [6]): < 20% | inhibition of growth at 30 µM (MCF7 [9]): < 20% | inhibition of growth at 10 µM (A2780 [11]): < 20%

Compound: CCC[C@H]1[C@@H]2CCc3cc(OCc4cn([C@H]5O[C@H](COC(C)=O)[C@@H](OC(C)=O)[C@H](OC(C)=O)[C@@H]5OC(C)=O)nn4)ccc3[C@H]2CC[C@]1(C)CO
inhibition of growth at 10 µM (MCF7 [1]): 26.3% | inhibition of growth at 10 µM (HeLa [2]): 51.9% | inhibition of growth at 30 µM (A2780 [5]): 36.5% | inhibition of growth at 30 µM (HeLa [6]): 41.5% | inhibition of growth at 30 µM (MCF7 [9]): 54.3% | inhibition of growth at 10 µM (A2780 [11]): 34.9%

Compound: CCC[C@H]1[C@@H]2CCc3cc(OCc4cn([C@@H]5O[C@H](COC(C)=O)[C@@H](OC(C)=O)[C@H](OC(C)=O)[C@H]5OC(C)=O)nn4)ccc3[C@H]2CC[C@]1(C)CO
inhibition of growth at 10 µM (MCF7 [1]): 27.4% | inhibition of growth at 10 µM (HeLa [2]): 34.5% | inhibition of growth at 30 µM (A2780 [5]): 19.5% | inhibition of growth at 30 µM (HeLa [6]): 23.9% | inhibition of growth at 30 µM (MCF7 [9]): 45.5% | inhibition of growth at 10 µM (A2780 [11]): 21%

Compound: CCC[C@H]1[C@@H]2CCc3cc(OCc4cn([C@@H]5O[C@H](COC(C)=O)[C@H](OC(C)=O)[C@H](OC(C)=O)[C@H]5OC(C)=O)nn4)ccc3[C@H]2CC[C@]1(C)CO
inhibition of growth at 10 µM (MCF7 [1]): < 20% | inhibition of growth at 10 µM (HeLa [2]): 23.9% | inhibition of growth at 30 µM (A2780 [5]): 32.7% | inhibition of growth at 30 µM (HeLa [6]): 31.8% | inhibition of growth at 30 µM (MCF7 [9]): 61.9% | inhibition of growth at 10 µM (A2780 [11]): < 20%

Compound: CCC[C@H]1[C@@H]2CCc3cc(OCc4cn(C[C@H]5O[C@H](OC)[C@H](OC(=O)c6ccccc6)[C@@H](OC(=O)c6ccccc6)[C@@H]5OC(=O)c5ccccc5)nn4)ccc3[C@H]2CC[C@]1(C)/C=N/O
inhibition of growth at 10 µM (MCF7 [1]): < 20% | inhibition of growth at 10 µM (HeLa [2]): < 20% | inhibition of growth at 30 µM (A2780 [5]): 45.7% | inhibition of growth at 30 µM (HeLa [6]): < 20% | inhibition of growth at 30 µM (MCF7 [9]): < 20% | inhibition of growth at 10 µM (A2780 [11]): 28.4%

pIC50 (HeLa [7]): < 4.52 | pIC50 (MCF7 [8]): < 4.52 | pIC50 (A2780 [10]): 4.56
Compound: CCC[C@H]1[C@@H]2CCc3cc(OCc4cn([C@@H]5O[C@H](CO)[C@@H](O)[C@H](O)[C@H]5O)nn4)ccc3[C@H]2CC[C@]1(C)/C=N/O
inhibition of growth at 10 µM (MCF7 [1]): < 20% | inhibition of growth at 10 µM (HeLa [2]): < 20% | inhibition of growth at 30 µM (A2780 [5]): 57.9% | inhibition of growth at 30 µM (HeLa [6]): 31.5% | inhibition of growth at 30 µM (MCF7 [9]): < 20% | inhibition of growth at 10 µM (A2780 [11]): < 20%

Compound: CCC[C@H]1[C@@H]2CCc3cc(OCc4cn(C[C@H]5O[C@@H](OC)[C@H](OC(=O)c6ccccc6)[C@@H]5OC(=O)c5ccccc5)nn4)ccc3[C@H]2CC[C@]1(C)CO
inhibition of growth at 10 µM (MCF7 [1]): < 20% | inhibition of growth at 10 µM (HeLa [2]): < 20% | inhibition of growth at 30 µM (A2780 [5]): < 20% | inhibition of growth at 30 µM (HeLa [6]): < 20% | inhibition of growth at 30 µM (MCF7 [9]): < 20% | inhibition of growth at 10 µM (A2780 [11]): < 20%

Compound: CCC[C@H]1[C@@H]2CCc3cc(OCc4cn(C[C@H]5O[C@H](OC)[C@@H](OC(=O)c6ccccc6)[C@@H](OC(=O)c6ccccc6)[C@@H]5OC(=O)c5ccccc5)nn4)ccc3[C@H]2CC[C@]1(C)/C=N/O
inhibition of growth at 10 µM (MCF7 [1]): < 20% | inhibition of growth at 10 µM (HeLa [2]): < 20% | inhibition of growth at 30 µM (A2780 [5]): < 20% | inhibition of growth at 30 µM (HeLa [6]): < 20% | inhibition of growth at 30 µM (MCF7 [9]): < 20% | inhibition of growth at 10 µM (A2780 [11]): < 20%
